These results are taken from the supplement of paper PMC7046801.

Common to all, as to settings: 24 h
Assay [1] has as its system NHEK immortalized keratinocytes. The experiment in a line: IC50 cell viability (CellTiter-Glo). (In ATP-based viability assays light output follows the ATP content of the culture.)
Assay [2] has as its system NKTC primary neonatal keratinocytes. The assay is described as follows: IC50 cell viability (CellTiter-Glo).
Assay [3] relates to NHEK immortalized keratinocytes.
The subject of assay [4] is NKTC primary neonatal keratinocytes.

Consider `CCCCCCCCCCCC[N+](C)(C)Cc1ccccc1` [Benzyldimethyldodecylammonium chloride], for which the values for the IC50 cell viability in assay [1] and in assay [2] were 2.91 µM and 43.1 µM, respectively. Moreover, the figures for the “IC50 cell viability (WST-8)” value in assay [3] and in assay [4] were 3.36 µM and 22.2 µM, respectively.

On to `O=[N+]([O-])C(Br)(CO)CO` [Bronopol], for which the values for the IC50 cell viability in assay [1] and in assay [2] were 24.1 µM and 73.2 µM, respectively. Besides, the “IC50 cell viability (WST-8)” value stood at 24.9 µM in assay [3] and 53.8 µM in assay [4].

On to `O=[N+]([O-])c1ccc(Cl)c([N+](=O)[O-])c1` [1-Chloro-2,4-dinitrobenzene], for which the IC50 cell viability in assay [1] came out at 5.43 µM; in assay [2], 9.18 µM. The “IC50 cell viability (WST-8)” value in assay [3] worked out at 4.76 µM; in assay [4] it was 9.18 µM.

As for `N#CCCC(Br)(C#N)CBr` (configuration not stated) [1,2-Dibromo-2,4-dicyanobutane], the IC50 cell viability turned out to be 60.4 µM in assay [1] and 77.7 µM in assay [2]. The “IC50 cell viability (WST-8)” value in assay [3] and in assay [4] was over 88 µM throughout.

On to `N#CC(Cl)(Cl)Cl` [Trichloroacetonitrile], for which the IC50 cell viability in assay [1] is 0.8 µM; in assay [2] it was 5.34 µM. For the same compound, the results for the “IC50 cell viability (WST-8)” value in assay [3] and in assay [4] were 1.2 µM and 6.07 µM, respectively.

With `Cc1c2ccccc2c(C)c2c1ccc1ccccc12` [7,12-Dimethylbenz(a)anthracene], the IC50 cell viability in assay [1] and in assay [2] was 46.2 µM in each case. Besides, the “IC50 cell viability (WST-8)” value in assay [3] and in assay [4] was 46.2 µM throughout.

In the case of `O=c1[nH]sc2ccccc12` [1,2-Benzisothiazolin-3-one], the IC50 cell viability is 1.26 µM in assay [1] and 16 µM in assay [2]. The “IC50 cell viability (WST-8)” value is 1.68 µM in assay [3] and 21.4 µM in assay [4].

As to `CC(C)(c1ccc(OCC2CO2)cc1)c1ccc(OCC2CO2)cc1` (configuration not stated) [Bisphenol A diglycidyl ether], the IC50 cell viability in assay [1] amounted to 39.1 µM; in assay [2], 71.2 µM. Further, the “IC50 cell viability (WST-8)” value is 43.7 µM in assay [3] and 65.2 µM in assay [4].

Regarding `CN(C)c1ccc(C(=C2C=CC(=[N+](C)C)C=C2)c2ccc(N(C)C)cc2)cc1` [Methylrosaniline chloride], the IC50 cell viability in assay [1] turned out to be 1.99 µM; in assay [2] it was 41.5 µM. Also, the “IC50 cell viability (WST-8)” value stood at 1.51 µM in assay [3] and 42.8 µM in assay [4].

Consider `O=CCCCC=O` [Glutaraldehyde], for which the IC50 cell viability in assay [1] was 20.2 µM; in assay [2], over 88 µM. Further, the “IC50 cell viability (WST-8)” value is 24.4 µM in assay [3] and over 88 µM in assay [4].

Turning to `CCCCCCCCCCCC(=O)O` [Dodecanoic acid], the values for the IC50 cell viability in assay [1] and in assay [2] were 58.1 µM and over 88 µM, respectively. Besides, the “IC50 cell viability (WST-8)” value in assay [3] was 58.1 µM; in assay [4], over 88 µM.

Consider `Cc1ccc(/C=C2/C(=O)C3(C)CCC2C3(C)C)cc1` (configuration not stated) [Enzacamene], for which the results for the IC50 cell viability in assay [1] and in assay [2] were 71.3 µM and 71.6 µM, respectively. Moreover, the “IC50 cell viability (WST-8)” value in assay [3] and in assay [4] was over 88 µM each time.

On to `Oc1c(Cl)cc(Cl)c(Cl)c1Cc1c(O)c(Cl)cc(Cl)c1Cl` [Hexachlorophene], for which the results for the IC50 cell viability in assay [1] and in assay [2] were 0.39 µM and 18.8 µM, respectively. Also, the “IC50 cell viability (WST-8)” value came out at 0.37 µM in assay [3] and 2.28 µM in assay [4].
